Reference: patent US20100069297A1, “Selective Inhibition of TLR4 Signaling” (priority 2005, published 2010)
“Also recorded” adds a separate entry of the source. Ends that are not written are not given here.

Experiments:
Format in all cases: cell-based, mouse
[1] = tested on: TLR4 signaling (LPS-induced IL-1β, MIP-1β, IFN-β, RANTES mRNA); assay: LPS-induced gene expression in primary murine macrophages, real-time PCR; settings: for effect on induction of IL1-β and IFN-β mRNA (cytokine induction) by LPS: 30 min preincubation with peptide; for inhibitory effect on LPS-induced expression of IL-1β, MIP-1β, IFN-β and RANTES mRNA: 40 μM BP, 1 h preincubation, 10 ng/ml LPS, mRNA 1 h after LPS
Procedure: FIG. 1. Effect of blocking peptides on the cytokine induction by LPS. Thioglycollate-elicited primary murine macrophages were preincubated in the presence of 40 μMof BP for one hour before stimulation with 10 ng/ml of LPS. (A) Quantitative real-time PCR analysis of gene expression. (B) Secretion of IL-1β and IL-6. Concentration of the cytokines was measured after overnight incubation of the cells in the presence of LPS and the peptides. (C) Sensitivity of the LPS-stimulated expression of IFN-β and IL-1β mRNA to varying concentrations of TRAM and MyD88 BP. Total mRNA was isolated 1 hour after LPS stimulation (A and C). *p<0.05; **p<0.01.
FIG. 6. Effect of mutant TRAM BB loop peptides on LPS-induced activation of IL1-β and IFN-β mRNA. Details of the experiments are as described in the legend for FIG. 1, except for the cells were preincubated with peptides only for 30 minutes.
C3H/OuJ mice were purchased from the Jackson Laboratory (Bar Harbor, Me.). Thioglycollate-elicited peritoneal macrophages were harvested and cultured in the presence of E. coli K235 LPS or Pam3Cys as described previously (Salkowski et al., 1999, J. Immunol. 164, 1529).
(§1) Total cellular RNA was extracted from macrophage cultures as described elsewhere and reversed transcribed using AMV Reverse Transcriptase (Promega, Madison, Wis.) and poly-T priming as recommended by the manufacturer. The resulting cDNA was quantified by real time PCR using SYBR Green PCR Master Mix (Applied Biosystems) and ABI Prism 7900HT cycler. Primers for detection of IL-1β, IFN-β, MIP-1β, […]RANTES, and HPRT mRNAs were designed using the Primer Express 2.0 program (Applied Biosystems). Relative gene expression was calculated using ΔCt method with HPRT as a housekeeping gene (1.8̂(CtHPRT−CtGene)) Statistical analysis was performed by one way ANOVA with repeated measures, followed by Dunnett's multiple comparison post hoc test with p≦0.05 chosen as the level of significance.
Mice with targeted mutations in MyD88 (Kawai et al., 2001, supra; Toshchakov et al., 2002, supra) or TIRAP (Yamamoto et al., 2002, Nature 420, 324) retain the capacity to signal through the MyD88-independent pathway. […] Therefore, the first question we sought to address experimentally is whether interactions of the BB-loops of the TIR domains of these adapters affect protein interactions leading to gene expression. To this end, we designed cell permeable peptides whose sequences correspond to the BB-loops of each adapter molecule and measured the ability of each BP to interfere with the induction of immediate response genes induced via MyD88-dependent and independent pathways. […] All BB-loop-containing peptides exerted an inhibitory effect on LPS-induced expression of MyD88-dependent IL-1β and […], as well as MyD88-independent IFN-β and RANTES mRNA, as measured by real-time PCR (FIG. 1A).

[2] = tested on: TLR4 signaling (LPS-induced phosphorylation of ERK, JNK, p38); assay: LPS-stimulated activation of MAPKs (pERK, pJNK, pP38), Western blot; settings: for effect on LPS-induced activation of ERK, cells preincubated with peptides only for 30 minutes: FIG. 5 and 7, 30 min preincubation; for effect on LPS-induced activation of ERK, cells preincubated with peptides only for 30 minutes / inhibition of LPS-induced activation of ERK / effect on LPS-induced activation (phosphorylation) of MAPKs (ERK, JNK): LPS 10 ng/ml; for inhibition of LPS-induced activation of ERK / effect on LPS-induced activation of p38: 40 μM BP; for effect on LPS-induced activation (phosphorylation) of MAPKs (ERK, JNK): 40 μM, 1 h preincubation; for inhibition of phosphorylation of ERK whether or not 100-fold excess LPS was used: peptide increased from 10 μM to 40 μM, LPS 10 ng/nl or 1 μg/ml
Procedure: (§2) FIG. 2. Effect of blocking peptides on the LPS-stimulated activation of MAPKs and Tyr701 STAT-1. Ten μg of total protein was loaded per lane. A representative blot of three separate experiments is shown. Other details are given in the Materials and Methods section and legend for FIG. 1.
(§3) FIG. 4. Comparative effect of BPs on TLR2-vs. TLR4-mediated activation of MAPKs (A) and IL-1β mRNA expression (B). For Western blot analysis, 4.5 x10^6 primary macrophages were preincubated without or with 40 μM BP and stimulated for 30 min with LPS (10 ng/ml) or Pam3Cys (P3C; 150 ng/ml). The results shown are a representative blot of three separate experiments. Experimental details for FIG. 4B are the same as reported in the legend to FIG. 1A.
FIG. 5. Effect of mutated TRAM BB loop peptides on LPS-induced activation of ERK. Details of the experiment are as in legend for FIG. 4, except for the cells were preincubated with peptides only for 30 minutes.
(§4) SDS-PAGE and Western blot analysis were performed as described previously (Medvedev et al., 2001, J. Immunol. 167, 2257) with minor modifications. Antibodies for detection of activated MAPKs (pERK, pJNK and pP38) were purchased from Cell Signaling Technology (Beverly, Mass.). IRF-1 was detected using a rabbit polyclonal antibody from Santa-Cruz (Santa Cruz, Calif.). Antibody for detection of tyrosine-701 phosphorylated STAT1 was purchased from Zymed Laboratories (San Francisco, Calif.).
Using antibodies specific for the phosphorylated (activated) forms of JNK, ERK, and p38, we next sought to examine the effect of BB-loop-containing inhibitory peptides on LPS-stimulated activation of MAPKs. LPS induces quick and transient activation of MAPKs in primary macrophages (FIG. 2A) that was not affected by the addition of CP. […] The TIRAP BP was the weakest BP; all MAPKs were activated in the presence of it, although to a lesser extent when compared to CP.

[3] = tested on: TLR2 signaling (Pam3Cys-induced phosphorylation of ERK, JNK, p38); assay: Pam3Cys-induced activation of MAPKs, Western blot; settings: for effect on P3C-induced activation (phosphorylation) of ERK / effect on P3C-induced activation of p38: 40 μM; for effect on P3C-induced activation (phosphorylation) of ERK: P3C 150 ng/ml
Procedure: as §3, §4
Apart from the use of a CP, we sought to analyze further the specificity of the inhibitory effects of BB-loop peptides on TLR signaling. Therefore, we also tested the effect of the peptides on signal transduction elicited from TLR2.

[4] = tested on: TLR2 signaling (Pam3Cys-induced IL-1β mRNA); assay: Pam3Cys-induced cytokine mRNA expression, real-time PCR
Procedure: as §3, §1
Similar to their effect on activation of MAPKs, BPs were much weaker inhibitors with respect to Pam3Cys- vs. LPS-induced expression of IL-1β mRNA.

[5] = tested on: TLR4 signaling (LPS-induced STAT-1 phosphorylation); assay: LPS-induced phosphorylation of STAT-1, Western blot; settings: 40 μM BP
Procedure: as §2, §4

[6] = tested on: TLR4 signaling (IRF-1 protein); assay: LPS-induced upregulation of IRF-1 protein, SDS-PAGE/Western; settings: 100 ng/ml LPS, 1.5 h
Procedure: (§5) FIG. 3. Effect of blocking peptides on activation of IRF-3 and IRF-1. […] Primary mouse macrophages were stimulated with 100 ng/ml of LPS. Seventeen μg of total protein was loaded per lane of the native gel. Other details are as described in the legend for FIG. 1.
as §4
Importantly, MyD88 knockout macrophages are capable of inducing IRF-1 mRNA (Yamamoto et al., 2003, supra).

[7] = tested on: TLR4 signaling (IRF-3 dimerization); assay: LPS-induced dimerization of IRF-3, native PAGE; settings: 100 ng/ml LPS, 1.5 hr
Procedure: as §5
Native PAGE for detection of IRF-3 activation was performed with minor modifications (Iwamura et al., 2001, Genes Cells 6, 375). One×10^7 thioglycollate-elicited cells were plated into a 6 cm dish and washed with PBS to remove non-adherent cells. Primary macrophages were stimulated with 100 ng/ml of LPS for 1.5 hr and lysed in buffer containing 50 mM TRIS-HCl pH 7.5, 150 mM NaCl, 1 mM EDTA, 1% NP-40, 1 mM sodium orthovanadate and 1× Complete protease inhibitor cocktail (Roche, Mannheim, Germany). Lysates were mixed with native lysis buffer (Bio-Rad, Hercules, Calif.) supplemented with 1% deoxycholate. Fifteen to 20 μg protein per lane was electrophoresed on a non-reducing gel and immunoblotted. IRF-3 dimers and monomers were detected using rabbit anti-IRF-3 antibody (Zymed Laboratories) by Western analysis.
Interferon Regulatory Factors (IRFs) were first identified as important transcriptional mediators of the antiviral immune response (reviewed in Taniguchi et al., 2001, Annu. Rev. Immunol. 19, 623). Later, it was recognized that this family of transcription factors plays an essential role in signal transduction mediated by different TLRs. IRF-1 is regulated transcriptionally by signaling from different TLRs, as well as by cytokines induced by TLR engagement (e.g., IL-1, TNF, and IFN-β) (Fujita et al., 1989, Proc. Natl. Acad. Sci. USA 86, 9936). In contrast, IRF-3 is constitutively expressed in many cell types (Au et al., 1995, Proc. Natl. Acad. Sci. USA 92, 11675). Upon stimulation through TLR4 or TLR3, IRF-3 is phosphorylated at multiple sites in its C-terminus, and this modification enables it to dimerize and translocate to the nucleus where it targets IRF-3-responsive genes (Kawai et al., 2001, supra; Lin et al., 1999, Mol. Cell. Biol. 19, 2465).

[8] = listed as Antennapedia DD loop peptide

Row | Sequence | effect on induction of IL1-β and IFN-β mRNA (cytokine induction) by LPS [1] | effect on P3C-induced cytokine induction [4] | inhibition of LPS-induced Tyr701 phosphorylation of STAT-1 [5] | effect on LPS-induced upregulation of IRF-1 protein [6] | effect on LPS-induced activation (phosphorylation) of MAPKs (ERK, JNK) [2] | inhibition of LPS-induced dimerization of IRF-3 [7] | inhibitory effect on LPS-induced expression of IL-1β, MIP-1β, IFN-β and RANTES mRNA [1] | inhibition of phosphorylation of ERK whether or not 100-fold excess LPS was used [2] | also measured
1 | IVFAAMPCGRLHLQ [E/A mutant] | did not affect considerably inhibitory capacity | – | – | – | – | – | – | – | effect on LPS-induced activation of ERK, cells preincubated with peptides only for 30 minutes [2]: did not affect considerably inhibitory capacity
2 | KYKAMKKDFPSILR [MyD88 DD loop peptide] | not inhibitory | not inhibitory | – | – | – | – | – | – | effect on P3C-induced activation (phosphorylation) of ERK [3]: not inhibitory; effect on P3C-induced activation (phosphorylation) of ERK [3, 8]: does not inhibit; effect on LPS-induced activation of ERK, cells preincubated with peptides only for 30 minutes [2]: not inhibitory; effect on LPS-induced activation of ERK, cells preincubated with peptides only for 30 minutes [2, 8]: does not inhibit
3 | RQIKIWFONRRMKWKKFCEEFQVPGRGELH (RQIKIWFQNRRMKWKKFCEEFQVPGRGELH; TRIF blocking peptide) [TRIF-BP] | – | – | strongly inhibited | intermediate efficacy | strongly inhibited | significantly inhibited | – | – | inhibition of LPS-induced activation of ERK [2]: incomplete
4 | RQIKIWFQNRRMKWKKIVFAEMPCGRLHLQ [TRAM-BP] | – | – | strongly inhibited | strongest inhibitors | strongly blocked | significantly inhibited | strongest | effectively inhibited | –
5 | RQIKIWFQNRRMKWKKLHERNFVPGKSIVE (TLR1/6 blocking peptide) [TLR1/6-BP] | – | – | – | – | affected neither | – | – | – | inhibition of Pam3Cys-induced phosphorylation of MAPKs ([3]; 40 μM BP, Pam3Cys 150 ng/ml, 30 min): affected neither
6 | RQIKIWFQNRRMKWKKLHKRDFVPGKWIID [TLR2-BP] | inhibitory | inhibitory | – | – | – | – | – | effectively inhibited | effect on P3C-induced activation of p38 [3]: did not inhibit; effect on P3C-induced activation (phosphorylation) of ERK ([3]; listed as TLR2 BB peptide): diminished and delayed; also recorded: to some extent; effect on LPS-induced activation of p38 [2]: did not inhibit; inhibition of LPS-induced activation of ERK ([2]; listed as TLR2 BB peptide): potent inhibitors; also recorded: inhibit
7 | RQIKIWFQNRRMKWKKLHYRDFIPGVAIAA [TLR4-BP] | inhibitory | inhibitory | – | – | – | – | – | effectively inhibited | effect on P3C-induced activation of p38 [3]: did not inhibit; effect on P3C-induced activation (phosphorylation) of ERK ([3]; listed as TLR4 BB peptide): to a lesser extend; also recorded: to some extent; effect on LPS-induced activation of p38 [2]: did not inhibit; inhibition of LPS-induced activation of ERK ([2]; listed as TLR4 BB peptide): potent inhibitors; also recorded: inhibit
8 | RQIKIWFQNRRMKWKKLQLRDAAPGGAIVS (TIRAP blocking peptide) [TIRAP-BP] | – | – | did not completely block | weakest | weakest BP | inhibition was not as complete | consistently weakest | – | –
9 | RQIKIWFQNRRMKWKKSLHGRGDPMEAFII (Control peptide - BLAST generated) [reference compound] | – | – | – | strong upregulation | not affected | – | not significantly affected | – | effect on Pam3Cys-induced expression of IL-1β mRNA ([4]; 40 μM, Pam3Cys): not significantly affected
